Assay results published in patent publication US20050228180A1, “Alpha, omega-dicarboximide derivatives as useful uro-selective a1a adrenoceptor blockers” (priority 2002, published 2005).
pKi: −log10 of the molar value. Where a name gives a salt, the structure may show the parent alone.

Experiments:
[1] = molecular target: T1, α1A adrenoceptor (prostate) (Rattus norvegicus, UniProt P43140); assay: In vitro functional assay, isolated prostate, phenylepinephrine contraction; assay type: cell-based; settings: for Selectivity α1D/α1A: functional, from pKB; for Kb: rat prostate, phenylepinephrine, read-out: α Adrenoceptor Subtype (pKB) α1A (converted)
T1 construct: from tissue; host or cells: isolated prostate tissue
T1 sequence (P43140 1-466): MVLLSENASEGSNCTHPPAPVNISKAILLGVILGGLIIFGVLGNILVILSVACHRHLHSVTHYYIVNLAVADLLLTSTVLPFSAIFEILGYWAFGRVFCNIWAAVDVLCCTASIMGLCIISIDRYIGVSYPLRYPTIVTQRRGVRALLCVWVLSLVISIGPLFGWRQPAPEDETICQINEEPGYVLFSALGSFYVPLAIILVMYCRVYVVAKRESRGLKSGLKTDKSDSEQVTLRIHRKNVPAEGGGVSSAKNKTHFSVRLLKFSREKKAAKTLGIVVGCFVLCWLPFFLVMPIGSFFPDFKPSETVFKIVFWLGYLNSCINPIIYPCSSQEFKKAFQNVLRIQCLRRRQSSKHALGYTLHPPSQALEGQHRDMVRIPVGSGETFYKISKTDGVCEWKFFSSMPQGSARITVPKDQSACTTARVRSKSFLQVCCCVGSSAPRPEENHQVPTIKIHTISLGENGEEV
Text: (§1) In order to study selectivity of action of these compounds towards different a-adrenoceptor subtypes, the ability of these compounds to antagonise (α1D) prostate (α1A) and spleen (α1B) was studied. Aorta and spleen tissues were isolated from urethane anaesthetized (1.5 g/kg) male wister rats. Isolated tissues were mounted in organ bath containing Krebs Henseleit buffer of the following composition (mM): NaCl 118; KCl 4.7; CaCl2 2.5; MgSO4 7H2O 1.2; NaHCO3 25; KH2PO4 1.2; glucose 11.5. Buffer was maintained at 37° C. and aereated with a mixture of 95% O2 and 5% CO2. A resting tension of 2 g (aorta) or 1 g (spleen and prostate) was applied to tissues. Contractile response was monitored using a force displacement transducer and recorded on chart recorders. Tissues were allowed to equilibrate for 2 hours. At the end of equilibration period, concentration response curves to norepinephrine (aorta) and phenylepinephrine (spleen and prostate) were obtained in the absence and presence of tested compound (at concentration of […]). Antagonist affinity was calculated and expressed as pKB values in Table II.

α1B adrenoceptor = molecular target: T2, α1B adrenoceptor (Rattus norvegicus, UniProt P15823); assay: Radioligand binding, [3H] prazosin displacement, rat liver membranes; settings: read-out: Affinity (Ki) α1B (Rat Liver)
T2 construct: from tissue; host or cells: rat liver membranes
T2 sequence (P15823 1-515): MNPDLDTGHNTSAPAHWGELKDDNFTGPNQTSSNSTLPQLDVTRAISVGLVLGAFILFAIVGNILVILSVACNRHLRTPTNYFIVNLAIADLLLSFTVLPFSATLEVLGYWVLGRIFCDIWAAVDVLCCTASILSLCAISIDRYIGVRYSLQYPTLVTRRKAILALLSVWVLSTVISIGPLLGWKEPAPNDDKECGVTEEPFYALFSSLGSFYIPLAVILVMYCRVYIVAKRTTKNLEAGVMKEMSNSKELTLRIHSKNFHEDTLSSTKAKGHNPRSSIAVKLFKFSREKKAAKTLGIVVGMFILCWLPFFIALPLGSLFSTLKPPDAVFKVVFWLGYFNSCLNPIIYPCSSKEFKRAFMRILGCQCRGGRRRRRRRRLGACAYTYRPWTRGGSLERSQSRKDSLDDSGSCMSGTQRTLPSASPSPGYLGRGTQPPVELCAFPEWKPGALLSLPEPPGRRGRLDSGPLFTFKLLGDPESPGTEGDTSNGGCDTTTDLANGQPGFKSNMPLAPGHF
Method: (§2) Receptor binding assays were performed using native a-adrenoceptors. The affinity of different compounds for α1A and α1B adrenoceptor subtypes was evaluated by studying their ability to displace specific [^3H] prazosin binding from the membranes of rat submaxillary and liver respectively (Michel et al., Br J Pharmacol, 1989: 98:883). The binding assays were performed according to U+Prichard et al. (Eur J Pharmacol, 1978; 50:87 with minor modifications.
(§3) Submaxillary glands were isolated immediately after sacrifice. The liver was perfused with buffer (Tris HCl 50 mM, NaCl 100 mM, 10 mM EDTA pH 7.4). The tissues were homogenised in 10 volumes of buffer (Tris HCl 50 mM, NaCl 100 mM, 10 mM EDTA pH 7.4). The homogenate was filtered through two layers of wet gauge and filtrate was centrifuged at 500 g for 10 min. The supernatant was subsequently centrifuged at 40,000 g for 45 min. The pellet thus obtained was resuspended in the same volume of assay buffer (Tris HCl 50 mM, 5 mM EDTA pH 7.4) and was stored at −70° C. until the time of assay.
(§4) The membrane homogenates (150-250 μg protein) were incubated in 250 μl of assay buffer (Tris HCl 50 mM, EDTA 5 mM, pH 7.4) at 24-25° C. for 1 hour. Non specific binding was determined in the presence of 300 nM prazosin. The incubation was terminated by vacuum filtration over GF/B fibre filters. The filters were then washed with ice cold 50 mM Tris HCl buffer (pH 7.4). The filtermats were dried and bound radioactivity retained on filters was counted. The IC50 and Kd were estimated by using the non-linear curve-fitting program using G Pad Prism software. The value of inhibition constant Ki was calculated from competitive binding studies by using Cheng & Prusoff equation (Cheng & Prusoff, Biochem Pharmacol, 1973, 22: 3099-3108), Ki=IC50/(1+L/Kd) where L is the concentration of [^3H] prazosin used in the particular experiment (Table 1).

α1A adrenoceptor = molecular target: T3, α1A adrenoceptor (Rattus norvegicus, UniProt P43140); assay: Radioligand binding, [3H] prazosin displacement, rat submaxillary membranes; settings: for pKi: [3H] prazosin displacement, rat submaxillary membranes, read-out: Affinity (Ki) α1A (Rat Submaxillary); for α1B/α1A: ratio of binding affinities, rat liver / rat submaxillary
T3 construct: from tissue; host or cells: rat submaxillary gland membranes
T3 sequence (P43140 1-466): T1 sequence (P43140 1-466)
Method: as §2, §3, §4

α1D adrenoceptor (aorta) = molecular target: T4, α1D adrenoceptor (aorta) (Rattus norvegicus, UniProt P23944); assay: In vitro functional assay, isolated aorta, norepinephrine contraction; assay type: cell-based; settings: read-out: α Adrenoceptor Subtype (pKB) α1D (converted)
T4 construct: Isolated tissues were mounted in organ bath containing Krebs Henseleit buffer; from tissue; host or cells: isolated rat aorta
T4 sequence (P23944 1-561): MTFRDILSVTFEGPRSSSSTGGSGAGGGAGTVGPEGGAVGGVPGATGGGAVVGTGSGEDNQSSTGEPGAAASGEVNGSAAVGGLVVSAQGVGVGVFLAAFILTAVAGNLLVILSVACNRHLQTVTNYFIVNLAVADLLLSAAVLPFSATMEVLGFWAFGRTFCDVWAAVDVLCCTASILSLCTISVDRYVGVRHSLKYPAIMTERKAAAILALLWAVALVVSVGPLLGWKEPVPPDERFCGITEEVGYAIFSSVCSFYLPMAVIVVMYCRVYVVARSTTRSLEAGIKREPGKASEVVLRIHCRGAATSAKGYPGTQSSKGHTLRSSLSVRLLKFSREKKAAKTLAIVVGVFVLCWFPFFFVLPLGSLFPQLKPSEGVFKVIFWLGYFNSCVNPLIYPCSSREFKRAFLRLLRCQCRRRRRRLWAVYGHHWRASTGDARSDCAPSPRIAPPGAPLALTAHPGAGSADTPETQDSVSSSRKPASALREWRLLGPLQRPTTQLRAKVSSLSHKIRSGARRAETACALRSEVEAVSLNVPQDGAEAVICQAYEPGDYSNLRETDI
Text: as §1

Row | Selectivity α1D/α1A [1] | Kb [1] [nM] | pKi (α1B adrenoceptor) | pKi (α1A adrenoceptor) | α1B/α1A (α1A adrenoceptor) | Kb (α1D adrenoceptor (aorta)) [nM] | SMILES
1 | 1.3 | 0.427 | 7.01 | 8.82 | 65 | 0.575 | CCOc1ccccc1N1CCN(CCCN2C(=O)C3CCC(O)CC3C2=O)CC1.Cl (stereo not drawn) [Compound No. 18, 2-[3-{4-(2-Ethoxyphenyl)piperazin-1-yl}propyl]-5-hydroxy-3a,4,5,6,7,7a-hexahydro-1H-isoindole-1,3(2H)-dione hydrochloride]
2 | 105 | 1.58 | 5.68 | 8.05 | 237 | 166 | CC(C)Oc1cc(N)ccc1N1CCN(CCCN2C(=O)C3CC=CCC3C2=O)CC1.Cl (stereo not drawn) [Compound No. 26, 2-[3-{4-(2-Isopropoxy-4-aminophenyl)piperazin-1-yl}propyl]-3a,4,7,7a-tetrahydro-1H-isoindole-1,3(2H)-dione hydrochloride]
3 | 45 | 0.229 | 6.62 | 8.55 | 85 | 10.2 | CC(C)Oc1ccccc1N1CCN(CC(O)CN2C(=O)CCCC2=O)CC1.Cl (stereo not drawn) [Compound No. 29, 1-[4-(2-Isopropoxyphenyl)piperazin-1-yl]-2-hydroxy-3-(2,6-dioxopiperidin-1-yl)propane hydrochloride]
4 | 5.2 | 1.66 | 6.41 | 8.77 | 231 | 8.71 | CC(C)Oc1ccccc1N1CCN(CC(O)CN2C(=O)C3CC4OC4CC3C2=O)CC1 (stereo not drawn) [Compound No. 30, 2-[3-{4-(2-Isopropoxyphenyl)piperazin-1-yl}-2-hydroxypropyl]-5,6-epoxy-3a,4,5,6,7,7a-hexahydro-1H-isoindole-1,3(2H)-dione]
5 | 3.3 | 1.45 | 7.04 | 8.64 | 40 | 4.79 | O=C1C2CC=CCC2C(=O)N1CC(O)CN1CCN(c2ccccc2OCC(F)(F)F)CC1 (stereo not drawn) [Compound No. 31, 2-[3-{4-(2-(2,2,2-Trifluoroethoxyphenyl)piperazin-1-yl}-2-hydroxypropyl]-3a,4,7,7a-tetrahydro-1H-isoindole-1,3(2H)-dione hydrochloride]
6 | 23 | 0.676 | 7.29 | 9.74 | 283 | 15.8 | O=C1C2CC3OC3CC2C(=O)N1CCCN1CCN(c2ccccc2OCC(F)(F)F)CC1 (stereo not drawn) [Compound No. 32, 2-[3-{4-(2-(2,2,2-Trifluoroethoxy)phenyl)piperazin-1-yl}propyl]-5,6-epoxy-3a,4,5,6,7,7a-hexahydro-1H-isoindole-1,3(2H)-dione]
7 | 15 | 1.26 | 6.51 | 8.71 | 159 | 19.1 | O=C1C2CC3OC3CC2C(=O)N1CC(O)CN1CCN(c2ccccc2OCC(F)(F)F)CC1 (stereo not drawn) [Compound No. 34, 2-[3-{4-(2-(2,2,2-Trifluoroethoxy)phenyl)piperazin-1-yl}-2-hydroxypropyl]-5,6-epoxy-3a,4,5,7,7a-hexahydro-1H-isoindole-1,3(2H)-dione]
8 |  |  | 7.15 | 8.64 | 31 |  | COC1=C(OC)CC2C(=O)N(CCCN3CCN(c4ccccc4OC(C)C)CC3)C(=O)C2C1 (stereo not drawn) [Compound No. 75, 2-[3-{4-(2-Isopropoxyphenyl)piperazin-1-yl}propyl]-5,6-dimethoxy-3a,4,7,7a-tetrahydro-1H-isoindole-1,3 (21H)-dione hydrochloride]
9 |  |  | 6.72 | 8.85 | 137 |  | COC1CC2C(=O)N(CCCN3CCN(c4ccccc4OC(C)C)CC3)C(=O)C2CC1OC.Cl (stereo not drawn) [Compound No. 76, 2-[3-{4-(2-Isopropoxyphenyl)piperazin-1-yl}propyl]-5,6-dimethoxy-3a,4,5,6,7,7a-hexahydro-1H-isoindole-1,3(2H)-dione hydrochloride]
10 |  |  | 6.04 | 6.31 | 1.9 |  | CC(C)Oc1ccccc1N1CCN(CCCN2C(=O)C3C(c4ccccc4)C=CC(c4ccccc4)C3C2=O)CC1 (stereo not drawn) [Compound No. 77, 2-[3-{4-(2-Isopropoxyphenyl)piperazin-1-yllpropyl]-4,7-diphenyl-3a,4,7,7a-tetrahydro-1H-isoindole-1,3(2H)-dione hydrochloride]
11 |  |  | 6.48 | 6.49 | 1 |  | COc1ccccc1N1CCN(CCCN2C(=O)C3C(c4ccccc4)C=CC(c4ccccc4)C3C2=O)CC1.Cl (stereo not drawn) [Compound No. 78, 2-[3-{4-(2-Methoxyphenyl)piperazin-1-yl}propyl]-4,7-diphenyl-3a,4,7,7a-tetrahydro-1H-isoindole-1,3(2H)-dione hydrochloride]

Row | SMILES | Selectivity α1D/α1A [1] | Kb [1] [nM] | pKi (α1B adrenoceptor) | pKi (α1A adrenoceptor) | α1B/α1A (α1A adrenoceptor) | Kb (α1D adrenoceptor (aorta)) [nM]
12 | CC(=O)OC1C=CCC2C(=O)N(CCCN3CCN(c4ccccc4OC(C)C)CC3)C(=O)C12 (stereo not drawn) [Compound No. 40, 2-[3-{4-(2-Isopropoxyphenyl)piperazin-1-yllpropyl]4-acetoxy-3a,4,7,7a-tetrahydro-1H-isoindole-1,3(2H)-dione hydrochloride] | 4.5 | 0.339 | 6.84 | 9.09 | 174 | 1.51
